In patent US20250101032A1, “EXATECAN DERIVATIVES AND ANTIBODY-DRUG CONJUGATES THEREOF” (priority 2021, published 2025) one finds IC50 and solubility data, which are given here for 17 compounds.

≈ marks a conversion by molar mass, not a printed value.

Data set [1] concerns SKBR3. In words: In vitro cytotoxicity assay (CellTiter-Glo), SKBR3. The format is cell-based, Human. Particulars: Homo sapiens, SK-BR-3, 144 h, read-out: Cytotoxicity IC50. As for the experimental part:
(§1) Human tumor cell lines, SK-BR-3, NCI-H292, HT-29, MCF-7, NCI-N87, and FaDu were obtained from ATCC. NCI-H292, HT-29, MCF-7, and NCI-N87 cells were cultured in RPMI-1640 media (Gibco, Life Technologies) supplemented with 10% v/v heat inactivated FBS (Corning), FaDu cells were maintained in DMEM media (Gibco, Life Technologies) supplemented with 10% v/v heat inactivated FBS (Corning). SK-BR-3 cells were maintained in McCoys 5A medium (Gibco, Life Technologies) supplemented with 10% […] heat inactivated FBS (Corning) at 37° C. in a humidified incubator containing 5% CO2.
(§2) Lyophilized compounds were dissolved in 100% dry DMSO, aliquots frozen and stored at −80° C. Concentration and purity of compound stock solutions in DMSO were determined by RP-HPLC Agilent 1100 platform with 1200 DAD and SofTA ELSD detectors, and the Agilent 6150 MS system (UV/VIS, ELSD purity and MS compound identity confirmation). Shimadzu 3.0 mm×30 mm XR ODS 2.2 μm column was run at 50° C., 1.5 mL/min. Solvent A: 0.1% Formic acid in water, Solvent B: 0.08% Formic acid in methanol-Gradient: 5%-100% B in 3.0 min, 100% solvent B for 0.3 min. Concentration of compounds in 100% DMSO determined by ELS ranged from 1-6 mM.
(§3) Cells were plated in 96-well white flat-bottomed plates (Corning) at 2.0×10^3 cells per well in 100 μL culture medium. After incubation for 24 hours, test compounds were added at a range of concentrations as ten point serial dilution as duplicates or triplicates. Following further incubation for 6 days 37° C., 5% CO2, cell viability was assessed with the use of a CellTiter-Glo Luminescent Cell Viability Assay (Promega). Luminescence was measured using the GloMax instrument (Promega). […] For a subset of payloads, each treatment was independently repeated two to eight times, and IC50 values were averaged. […] Standard deviation (stdev) is shown as (N/A) for treatment performed once.

Data set [2] concerns HT29. As to the kind of experiment: In vitro cytotoxicity assay (CellTiter-Glo), HT29. The format is cell-based, Human. The conditions noted are these: Homo sapiens, HT-29, 144 h, read-out: Cytotoxicity IC50. As for the experimental part:
as §1, §2, §3

For data set [3], the system named is NCI-H292. As to the kind of experiment: In vitro cytotoxicity assay (CellTiter-Glo), NCI-H292. The format is cell-based, Human. The conditions noted are these: Homo sapiens, NCI-H292, 144 h, read-out: Cytotoxicity IC50. Here is the method:
as §1, §2, §3

Data set [4] concerns MCF7. As to the kind of experiment: In vitro cytotoxicity assay (CellTiter-Glo), MCF7. The format is cell-based, Human. Particulars: Homo sapiens, MCF7, 144 h, read-out: Cytotoxicity IC50. As for the experimental part: as §1, §2, §3
For data set [5], the system named is NCI-N87. In words: In vitro cytotoxicity assay (CellTiter-Glo), NCI-N87. The class given is cell-based, Human. The conditions noted are these: Homo sapiens, NCI-N87, 144 h, read-out: Cytotoxicity IC50. As for the experimental part:
as §1, §2, §3

Data set [6] concerns FaDu. As to the kind of experiment: In vitro cytotoxicity assay (CellTiter-Glo), FaDu. The class given is cell-based, Human. Particulars: Homo sapiens, FaDu, 144 h, read-out: Cytotoxicity IC50. Here is the method: as §1, §2, §3
Data set [7] is described as follows: physchem. The conditions noted are these: 25 °C, pH 7.4, aqueous buffer, kinetic from dmso stock. Here is the method:
In-vitro kinetic solubilities of the compounds in PBS pH 7.4 buffer at 25° C. were determined by diluting compounds from 100% dimethyl sulfoxide (DMSO) into PBS buffer and measuring absorbance at 490, 590 and 650 nm. Stock concentrations in 100% DMSO were provided at 1-6 mM in 100% DMSO. Kinetic solubilities were determined by diluting test compounds from 100% DMSO into PBS pH 7.4 buffer, as duplicate, 10 point 2-fold serial dilution starting at 100× dilution of stock DMS solution into PBS buffer in a clear, flat bottom polystyrene assay plates. Total assay volume was 200 microliters. Solutions were mixed by plate shaking, incubated for 30 m at 25° C., and absorbance was read at 490, 590 and 650 nm. […] in PBS buffer was used as a blank. For each test compound, average optical density (GD) at each concentration was determined by averaging the blank corrected sum of absorption at 490 nm, 590 nm and 650 nm, over duplicate measurements. Turbidity threshold optical density value was set as a sum of mean plus two standard deviations of the mean of absorbances at 490, 590 and 650 nm for 1% (v/v) DMSO in PBS pH 7.4 buffer. Highest soluble concentration (micromolar) corresponded to the highest concentration at which average optical density was below optical density value set for turbidity threshold (Table 4). Amiodarone and propranolol were used as low and high solubility controls respectively.

Consider `CC[C@@]1(O)C(=O)OCc2c1cc1n(c2=O)Cc2c-1nc1cc(F)c(C)c3c1c2[C@@H](NC(=O)c1coc(CO)n1)CC3` [Compound 167], for which the IC50 in data set [1] was 3.5 nM; in data set [2] it was 43.5 nM; in data set [3], 23 nM; in data set [4] it was 8.9 nM; in data set [5], 34 nM; in data set [6], 3 nM.
In turn, `CC[C@@]1(O)C(=O)OCc2c1cc1n(c2=O)Cc2c-1nc1cc(F)c(C)c3c1c2[C@@H](NC(=O)c1cc(O)[nH]n1)CC3` [Compound 166] registered a solubility at 30 min in data set [7] of 22 µM (≈ 12 µg/mL). The IC50 in data set [1] is 118 nM; in data set [2], 663 nM; in data set [3], 322 nM; in data set [4] it was 162 nM; in data set [5], 410 nM; in data set [6], 93.8 nM.
`CC[C@@]1(O)C(=O)OCc2c1cc1n(c2=O)Cc2c-1nc1cc(F)c(C)c3c1c2[C@@H](NC(=S)CO)CC3` [Compound 176]: the IC50 turned out to be 0.7 nM in data set [1]; 4.3 nM in data set [2]; 4.5 nM in data set [3]; 7.8 nM in data set [4]; 2.1 nM in data set [5]; 0.9 nM in data set [6].
In the case of `CC[C@@]1(O)C(=O)OCc2c1cc1n(c2=O)Cc2c-1nc1cc(F)c(C)c3c1c2[C@@H](NC(=O)CCC1OCCO1)CC3` [Compound 188], the solubility at 30 min in data set [7] turned out to be 6 µM (≈ 3.38 µg/mL). Besides, the IC50 amounted to 3.4 nM in data set [1]; 13 nM in data set [2]; 6.6 nM in data set [3]; 4.9 nM in data set [4]; 9 nM in data set [5]; 1.5 nM in data set [6].
Consider `CC[C@@]1(O)C(=O)OCc2c1cc1n(c2=S)Cc2c-1nc1cc(F)c(C)c3c1c2[C@@H](NC(=O)CO)CC3` [Compound 106], for which the IC50 in data set [1] is 0.4 nM; in data set [2], 1.1 nM; in data set [3], 0.4 nM; in data set [4], 0.2 nM; in data set [5], 0.9 nM.
As to `CC[C@@]1(O)C(=O)OCc2c1cc1n(c2=O)Cc2c-1nc1cc(F)c(C)c3c1c2[C@@H](NC(=O)C1CC(O)C1)CC3` (stereo partly drawn) [Compound 58], the IC50 in data set [1] was 12.1 nM; in data set [2] it was 177 nM; in data set [3], 60.5 nM; in data set [4] it was 32 nM; in data set [5], 49.4 nM; in data set [6] it was 6.3 nM.
For the compound `CC[C@@]1(O)C(=O)OCc2c1cc1n(c2=O)Cc2c-1nc1cc(F)c(C)c3c1c2[C@@H](NC(=O)C#CCO)CC3` [Compound 83], the IC50 was determined as 25.6 nM in data set [1]; 255 nM in data set [2]; 121 nM in data set [3]; 42.2 nM in data set [4]; 159 nM in data set [5]; 16.5 nM in data set [6].
Compound `CC(C)NCC(O)COc1cccc2ccccc12` (stereo not drawn) [Propranolol, propranolol, reference compound] returned a solubility at 30 min in data set [7] of 100 µM (≈ 25.9 µg/mL).
On to `CC[C@@]1(O)C(=O)OCc2c1cc1n(c2=O)Cc2c-1nc1cc(F)c(C)c3c1c2[C@@H](NC(=O)c1cc(CO)[nH]n1)CC3` [Compound 168], for which the IC50 in data set [1] was found to be 32.7 nM; in data set [2], 627 nM; in data set [3] it was 77.9 nM; in data set [4], 19.4 nM; in data set [5], 103 nM; in data set [6], 9.9 nM.
For `CC[C@@]1(O)C(=O)OCc2c1cc1n(c2=O)Cc2c-1nc1cc(F)c(C)c3c1c2[C@@H](N(C)CCO)CC3` [Compound 140], the solubility at 30 min in data set [7] is 10 µM (≈ 4.94 µg/mL). Besides, the IC50 came to 0.8 nM in data set [1]; 1.2 nM in data set [2]; 3 nM in data set [3]; 0.2 nM in data set [4]; 1.5 nM in data set [5]; 0.3 nM in data set [6].
For the compound `CC[C@@]1(O)C(=O)OCc2c1cc1n(c2=O)Cc2c-1nc1cc(F)c(C)c3c1c2[C@@H](NCCOCCO)CC3` [Compound 147], the concentration in solution in data set [7] (solubility at 30 min) was 21 µM (≈ 11 µg/mL). Moreover, the IC50 in data set [1] is 2.7 nM; in data set [2], 7.1 nM; in data set [3], 9.4 nM; in data set [4], 3.1 nM; in data set [5] it was 8.5 nM; in data set [6], 3 nM.
In turn, `CC[C@@]1(O)C(=O)OCc2c1cc1n(c2=O)Cc2c-1nc1cc(F)c(C)c3c1c2[C@@H](NC(=O)[C@H]1C[C@H]1CO)CC3` (single isomer, unassigned) [Compound 111-B] yielded a solubility at 30 min in data set [7] of 30 µM (≈ 16 µg/mL). For the same compound, the IC50 in data set [1] came to 2.1 nM; in data set [2], 6.3 nM; in data set [3], 4.5 nM; in data set [4], 3.8 nM; in data set [5], 5.2 nM; in data set [6], 1.1 nM.
`CC[C@@]1(O)C(=O)OCc2c1cc1n(c2=S)Cc2c-1nc1cc(F)c(C)c3c1c2[C@@H](N)CC3` [Compound 107]: in data set [7], the solubility at 30 min was determined as 15 µM (≈ 6.77 µg/mL). The IC50 in data set [1] was 0.1 nM; in data set [2], 0.4 nM; in data set [3], 0.6 nM; in data set [4], 0.2 nM; in data set [5] it was 0.2 nM; in data set [6] it was 0.1 nM.
In turn, `CC[C@@]1(O)C(=O)OCc2c1cc1n(c2=O)Cc2c-1nc1cc(F)c(C)c3c1c2[C@@H](NC(=O)C1(O)COC1)CC3` [Compound 159] showed a solubility at 30 min in data set [7] of 27 µM (≈ 14.5 µg/mL). The IC50 turned out to be 5.8 nM in data set [1]; 64.2 nM in data set [2]; 21.6 nM in data set [3]; 9.8 nM in data set [4]; 22.4 nM in data set [5]; 2 nM in data set [6].
In the case of `CC[C@@]1(O)C(=O)OCc2c1cc1n(c2=O)Cc2c-1nc1cc(F)c(C)c3c1c2[C@@H](NCCNCCN)CC3` [Compound 164], in data set [7], the solubility at 30 min stood at 10 µM (≈ 5.22 µg/mL). Besides, the IC50 in data set [1] stood at 10.8 nM; in data set [2] it was 32.7 nM; in data set [3], 30.3 nM; in data set [4], 5.2 nM; in data set [5], 22.8 nM; in data set [6] it was 8.8 nM.
`CC[C@@]1(O)C(=O)OCc2c1cc1n(c2=O)Cc2c-1nc1cc(F)c(C)c3c1c2[C@@H](N(C=O)CCO)CC3` [Compound 163] showed a solubility at 30 min in data set [7] of 24 µM (≈ 12.2 µg/mL). The IC50 in data set [1] came to 9.8 nM; in data set [2], 65 nM; in data set [3], 22.3 nM; in data set [4], 10.9 nM; in data set [5], 29.4 nM; in data set [6] it was 7.8 nM.
As to `CC[C@@]1(O)C(=O)OCc2c1cc1n(c2=S)Cc2c-1nc1cc(F)c(C)c3c1c2[C@@H](NC(=S)[C@H]1C[C@@H]1CO)CC3` [Compound 175-B], the IC50 was 0.5 nM in data set [1]; 1.6 nM in data set [2]; 1.5 nM in data set [3]; 0.6 nM in data set [4]; 1.5 nM in data set [5]; 0.3 nM in data set [6].
